“And” between values parts separate entries of the source, which are not always exact repeats. Identical values can stand only once.

What all share (assay): area under concentration-response curve (viability) (AUC (a.u.)); higher = less active
Common to all, as to conditions: 48 h

One assay concerns CU-ACC2. The method, boiled down: (§1)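 Cells from three adrenocortical carcinoma lines were seeded at 500–1,000 cells/well in 5 µL medium in 1,536-well plates. Each library compound was added as 23 nL at 11 concentrations, and after 48 h CellTiter-Glo was added for 15 minutes at room temperature before reading luminescence. Plate-wise normalisation to vehicle and empty-well controls preceded curve fitting. AC50 and area under the curve were calculated only for inhibitory or non-responding curve classes.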

The test system of another assay is CU-ACC1. The essentials: as §1
The next assay deals with NCI-H295R. The method, boiled down: as §1

Regarding `C[C@@H]\1/N=C(/N)NC(=N1)\N(C)C`, the “area under concentration-response curve” value with CU-ACC2 is 596; in the assay on CU-ACC1, 407; with NCI-H295R, 549.
For `COC/1=C(\CNC(=O)C2=C(C)[N]([C@H](C)C3CCN(CC3)CC(F)(F)F)C4=C2C=CC=C4)C(=O)N/C(=C1)C`, in that order: 556, 453 and 470.
On the same counts, the results for `CCOC1=CC=C(C=C1)N2C(=O)C3=CC=CN=C3/N=C2/[C@@H](C)N(CC4=CC=CN=C4)C(=O)CC5=CC=C(F)C(=C5)C(F)(F)F` are 606, 516 and 569.
For `Cc1c(NC(=O)c2cc(C(N)=O)nc3cc(F)ccc23)c(C(F)(F)F)nn1Cc1ccc(C(C)(C)C)cc1`, in that order: 589, 506 and 533.
As to `CC(C)OC1=C(F)C=C(C=C1)C2=N[N]([C@@H](C)C/3=C(C4=CC(=CC=C4)F)/C(=O)C5=CC(=CC=C5O3)F)C6=C2C(=NC=N6)N`, the “area under concentration-response curve” value came out at 641 in the assay on CU-ACC2, 516 in the assay with CU-ACC1 and 547 with NCI-H295R.
With `COc1cccc(Nc2ncnn3ccc(CN4CC[C@@H](N)[C@H](O)C4)c23)c1`, the entries for the “area under concentration-response curve” value in the assay with CU-ACC2, in the assay with CU-ACC1 and with NCI-H295R were 534, 399 and 552, respectively.
Take `N#CCC1(n2cc(-c3ncnc4[nH]ccc34)cn2)CN(C2CCN(C(=O)c3ccnc(C(F)(F)F)c3F)CC2)C1`: the “area under concentration-response curve” value amounted to 453 in the assay with CU-ACC2, 460 with CU-ACC1 and 508 with NCI-H295R.
For `COC1=CC=C(C=C1)C(=O)C2CCN(CC2)CC(=O)N(CC3CC3)C\C4=N\C5=C(\COCC5)C(=O)N4`, in that order: 564, 495 and 520.
In the case of `CN1CCN(C)C(=O)C1C2=CC=C(N/C3=N/C(=C\N(C)C3=O)C4=C(C)C(=CC=C4)NC(=O)C5=CC6=C(CCCC6)S5)C=C2` (stereo unspecified), the “area under concentration-response curve” value amounted to 612 in the assay with CU-ACC2, 528 in the assay on CU-ACC1 and 580 in the assay with NCI-H295R.
On the same counts, the results for `C[N+]1(C)[C@@H]2CC(OC(=O)[C@H](CO)c3ccccc3)C[C@H]1[C@@H]1O[C@@H]12` (stereo partly specified) are 556, 531 and 500.
Consider `Fc1ccc(Cl)cc1-c1nc(Nc2ccncc2)c2nccnc2n1`, for which the “area under concentration-response curve” value in the assay with CU-ACC2 is 612; in the assay on CU-ACC1, 553; in the assay on NCI-H295R, 549.
On the same counts, the results for `C/C=C/C(=O)N(CC)c1ccccc1C` are 468, 417 and 441.
Regarding `C[C@@H](c1ccc2nccn2c1)n1nnc2ncc(-c3cnn(C)c3)nc21`, the “area under concentration-response curve” value turned out to be 582 in the assay on CU-ACC2, 481 in the assay with CU-ACC1 and 512 in the assay on NCI-H295R.
For `OC1CCC(Nc2ncc3nc(Nc4c(F)cc(F)cc4F)n([C@@H]4CCOC4)c3n2)CC1` (stereo partly specified), in that order: 531, 464 and 446.
On the same counts, the results for `Nc1nc(F)nc2c1ncn2[C@@H]1O[C@H](CO)[C@@H](O)[C@@H]1O` are 577, 528 and 510.
For `C/C=C/C[C@@H](C)C(=O)[C@H]1C(=O)N[C@@H](C(C)C)C(=O)N(C)CC(=O)N(C)[C@@H](CC(C)C)C(=O)N[C@@H](C(C)C)C(=O)N(C)[C@@H](CC(C)C)C(=O)N[C@@H](C)C(=O)N[C@H](C)C(=O)N(C)[C@@H](CC(C)C)C(=O)N(C)[C@@H](CC(C)C)C(=O)N(C)[C@@H](C(C)C)C(=O)N1C`, in that order: 633, 534 and 524.
Regarding `CC(=O)OCC(CCn1cnc2cnc(N)nc21)COC(C)=O`, the “area under concentration-response curve” value stood at 596 in the assay with CU-ACC2, 565 in the assay on CU-ACC1 and 570 in the assay on NCI-H295R.
For `CC/1=C/N([C@@H]2C[C@@H](O)[C@H](CO)O2)C(=O)NC1=O`, in that order: 425, 410 and 404.
In the case of `C=CC(=O)Nc1cc(N2CCN(CC)CC2)ccc1Nc1cc(N(C)C(=O)Nc2c(Cl)c(OC)cc(OC)c2Cl)ncn1`, the “area under concentration-response curve” value in the assay on CU-ACC2 stood at 566; in the assay with CU-ACC1, 537; in the assay with NCI-H295R it was 495.
With `N#C/C(=C(/N)Sc1ccc(N)cc1)c1ccccc1C(F)(F)F`, the “area under concentration-response curve” value came to 574 with CU-ACC2, 533 with CU-ACC1 and 585 with NCI-H295R.
As for `Cc1ccsc1C(=CCCN1CCC[C@@H](C(=O)O)C1)c1sccc1C`, the figures for the “area under concentration-response curve” value with CU-ACC2, with CU-ACC1 and in the assay with NCI-H295R were 593, 488 and 541, respectively.
On the same counts, the results for `O=[N+]([O-])c1ccc(-c2nc(-c3ccc(F)cc3)c(-c3ccncc3)[nH]2)cc1` are 567, 498 and 489.
For `CC(C)(Sc1cc(C(C)(C)C)c(O)c(C(C)(C)C)c1)Sc1cc(C(C)(C)C)c(O)c(C(C)(C)C)c1`, in that order: 652, 550 and 601.
For `CC(C)C/1=C(NC2=C(C=N[N]2C1=O)C#N)\C3=CC=CC=C3`, in that order: 580, 497 and 480.
For `CO[C@H]1CC[C@H](N(c2cc(C3=CCCCC3)sc2C(=O)[O-])C(=O)[C@H]2CC[C@H](C)CC2)CC1`, the figures for the “area under concentration-response curve” value in the assay with CU-ACC2, with CU-ACC1 and in the assay on NCI-H295R were 613, 514 and 573, respectively.
Take `OC(=O)\C1=C\N(C2=CC=C(F)C=C2)C3=C(C=C(F)C(=C3)N4CCNCC4)C1=O`: the “area under concentration-response curve” value with CU-ACC2 worked out at 549; in the assay on CU-ACC1, 485; in the assay with NCI-H295R it was 497.
As to `C/C1=C/C[C@@H](/C(C)=C/c2csc(C)n2)OC(=O)C[C@H](O)C(C)(C)C(=O)[C@H](C)[C@@H](O)[C@@H](C)CCC1`, the “area under concentration-response curve” value came out at 567 with CU-ACC2, 480 in the assay with CU-ACC1 and 426 with NCI-H295R.
For `N#Cc1ccc(N(Cc2ccc(Br)cc2)n2cnnc2)cc1`, in that order: 633, 413 and 598.
For `Nc1nccc(-c2c(-c3ccc(F)cc3)ncn2C2CCN(Cc3ccon3)CC2)n1`, in that order: 578, 467 and 495.
On the same counts, the results for `CN1CCN(c2ccc(OC(F)(F)F)c(Nc3ncc4c(n3)-c3c(c(C(N)=O)nn3CCO)CC4)c2)CC1` are 587, 498 and 460.
Turning to `N#Cc1cccc(-c2c[nH]c3ncnc(N4CCOCC4)c23)c1`, the entries for the “area under concentration-response curve” value with CU-ACC2, in the assay with CU-ACC1 and in the assay on NCI-H295R were 595, 508 and 553, respectively.
As to `C[C@]\12CC[C@H](O)CC1=C/C[C@@H]3[C@@H]2CC[C@@]\4(C)[C@H]3C\C=C4C5=CN=CC=C5`, the “area under concentration-response curve” value in the assay with CU-ACC2 is 588; with CU-ACC1, 522; in the assay with NCI-H295R, 509.
On the same counts, the results for `OCCC#Cc1nc(-c2ccc(F)cc2)c(-c2ccncc2)n1CCCc1ccccc1` are 536, 513 and 475.
On the same counts, the results for `Cc1ccc(C(=O)Nc2ccc([S+](=O)([O-])O)c3cc([S+](=O)([O-])O)cc([S+](=O)([O-])O)c23)cc1NC(=O)c1cccc(NC(=O)Nc2cccc(C(=O)Nc3cc(C(=O)Nc4ccc([S+](=O)([O-])O)c5cc([S+](=O)([O-])O)cc([S+](=O)([O-])O)c45)ccc3C)c2)c1` are 488, 420 and 488.
With `CN1C(=O)/C=C(/NCCN(CCO)CCCC2=CC=C(C=C2)[N+]([O-])=O)N(C)C1=O`, the “area under concentration-response curve” value stood at 643 with CU-ACC2, 544 in the assay on CU-ACC1 and 586 with NCI-H295R.
Regarding `COC1=C(F)C(=CC=C1)C/2=C(C)/N(CC3=C(F)C=CC=C3C(F)(F)F)C(=O)N(C[C@H](NCCCC(O)=O)C4=CC=CC=C4)C2=O`, the “area under concentration-response curve” value was 598 and 615 with CU-ACC2; 508 in the assay on CU-ACC1; 556 and 555 with NCI-H295R.
Consider `O=C(O)c1cccnc1`, for which the “area under concentration-response curve” value with CU-ACC2 was found to be 604; with CU-ACC1 it was 579; with NCI-H295R, 548.

Values taken from the supplement of paper PMC10949913.
